For one series, the system named is BN472 breast cancer. As to the kind of experiment: In vivo assay of WX-671 in the BN472 rat breast cancer model. Also on record: species or system brown Norwegian rats. The note with it: WX-UK1 1 mg/kg i.p. daily, 30 days.
Series [1] deals with rat pancreatic tumor model, CA20948. Description: In vivo test of WX-671 in the pancreatic adenocarcinoma model CA20948. The note with it: 0.3 mg/kg by intraperitoneal injection; vehicle 30.7%.
Protocol: Groups of eighteen rats were inoculated with tumor by intraperitoneal injection of a tumor cell suspension, prepared from a solid tumor harvested from a donor rat.
In this model the intraperitoneally grafted cells migrate to the pancreas to form a pancreatic tumor intimately associated with the pancreas. Within 3 weeks the tumor disseminates typically to the liver to form metastatic lesions which can be counted. Treatments at dose levels of 0.03, 0.3 and 3.0 mg/kg once daily were orally applied daily from day 3 onwards.
The percentage of large liver foci was determined by dividing the number of large lesions by the number of total lesion detected on the livers.
The subject of series [2] is LPS-induced cytokine production. As to the kind of experiment: LPS-induced cytokine production in C57BL/6 mice. Format: in vivo. The note with it: serum 2 hours after LPS; dosed once 1 hour before LPS; dexamethasone 5 mg/kg i.p., RHB-104 108 mg/kg p.o. The protocol: This study was performed to evaluate the effects of RHB-104 (as detailed above) dosed orally at 108 mg/kg on lipopolysaccharide (LPS)-induced cytokine production in mice. The LPS-induced cytokine production model in mice is commonly used to test the ability of compounds to suppress production of pro-inflammatory cytokines TNF and IL-6 in vivo.
In this model LPS is injected into mice intraperitoneally (i.p.) or intravenously. Two hours after the LPS injection, concentrations of IL-6 and TNF reach peak levels in serum of the injected mice.
30 female C57BL/6 mice, 11 weeks old, were dosed once with RHB-104, then injected with LPS 1 hour later. 2 hours after LPS injection, mice were bled and serum was isolated. The concentration of cytokines in serum was measured. Dexamethasone administered at 5 mg/kg i.p. was used as positive control for suppression of the immune response. Dexamethasone suppresses production of pro-inflammatory cytokines TNF and IL-6 increases production of anti-inflammatory cytokine IL-10.
Serum concentrations of IL-2, IL-4, IL-6, IL-10, IL-17, IFN-γ and TNF were measured using cytokine bead analysis (CBA) Th1/Th2/Th17 kit (Becton Dickinson). Concentrations of cytokines in serum between groups were compared using 2-tailed Student's t-test.

Series [3] deals with Hs 766T pancreatic cancer cell line. Description: In vitro cytotoxicity MTT assay, Hs 766T. Format: cell-based, human. The following applies: 3 days. The protocol:
(§1) The following experiment was performed to assess the potential of combination agents of the present disclosure for their capability of inhibiting the growth or proliferation of pancreatic cancer cells comprising contacting pancreatic cancer cells with effective amounts of the agents, alone and in combination, thereby inhibiting the growth or proliferation of the pancreatic cancer cells.
(§2) The present study investigated whether clarithromycin+rifabutin+clofazimine (“Combo”) would be synergistic with [3-(4-chlorophenyl)-adamantane-1-carboxylic acid (pyridin-4-ylmethyl)amide] (“ABC2640”) against MIA PaCa-2, PANC-1, and Hs 766T pancreatic cancer cell lines. Hs 766T is a cell line derived from the lymph node metastasis of a person with pancreas carcinoma. MIA PaCa-2 is a cell line derived from the pancreas adenocarcinoma of a person who presented with abdominal pain for 6 months and a palpable upper abdominal mass. PANC-1 was cultured from a person with an adenocarcinoma in the head of the pancreas which invaded the duodenal wall.
(§3) The MTT assay is commonly used to determine cytotoxicity of potential medicinal agents, since these types of materials are expected to stimulate or inhibit cell viability and growth. Briefly, 3,000 cells were plated/well—100 μl/well. After overnight, prior to the assay, 50 μl supernatant was removed from each well. Each drug was added at 4× of the final concentration (in 50 μl). Total volume of each well was 200 μl. 4 wells had been used as a control and contained no cells at all. The plate was developed after being incubated for 3 days at 37° C. 20 μl of Promega Substrate Cell Titer 96 Aqueous One Solution Reagent was added to each well, incubated at 37° C. and read OD at 490 nm. The MTT test is based on the enzymatic reduction of the tetrazolium salt MTT [3-(4,5-dimethylthiazol-2-yl)-2,5-diphenyl-tetrazoliumbromide^+++] in living, metabolically active cells but not in dead cells. The reaction is carried out in situ in multiwell plates, and the reaction product, a purple-colored formazan soluble in dimethylsulfoxide, is measured colorimetrically, using a multiwell plate reader.

The subject of series [4] is PANC-1 pancreatic cancer cell line. Description: In vitro cytotoxicity MTT assay, PANC-1. The note with it: 3 days. Format: cell-based, human. The method, then: as §1, §2, §3
Series [5] concerns MIA PaCa-2 pancreatic cancer cell line. Description: In vitro cytotoxicity MTT assay, MIA PaCa-2. Format: cell-based, human. The following applies: 3 days. The protocol: as §1, §2, §3
In series [6] the test system is mouse JC mammary adenocarcinoma cell line. Description: Antitumor activity in syngeneic JC mammary adenocarcinoma model. It is filed as in vivo, Balb/c mice. The method, then:
The antitumor activity of ABC294640 was evaluated using a syngeneic tumor model that uses the mouse JC mammary adenocarcinoma cell line growing subcutaneously in immunocompetent Balb/c mice (Lee et al., 2003, Oncol Res 14: 49). These cells express elevated levels of SK activity relative to non-transformed cells, as well as the multidrug resistance phenotype due to P-glycoprotein activity.
Balb/c mice, 6-8 weeks old, were injected subcutaneously with 10^6 JC cells suspended in phosphate-buffered saline. ABC294640 was dissolved in PEG400 and administered to mice every-other day at a dose of 100 mg/kg. Body weights and tumor volumes were monitored daily. […] ABC294640 inhibited tumor growth relative to controls by 69%.

The subject of series [7] is MCF-10A non-transformed human breast epithelial cells. As to the kind of experiment: Cytotoxicity, SRB assay, MCF-10A. It is filed as cell-based. The note with it: 48 h, SRB binding assay, read-out: IC50 (concentration that inhibited proliferation by 50%). The method, then: (§4) To assess the biological efficacy of ABC294640 in intact cells, ABC294640 was evaluated for cytotoxicity using human cancer cell lines. These experiments followed methods that have been extensively used. Cell lines tested included MCF-7 human breast adenocarcinoma cells and MCF-10A non-transformed human breast epithelial cells. The indicated cell lines were treated with varying doses of ABC294640 for 48 h. Cell survival was then determined using the SRB binding assay (Skehan et al., 1990, J Natl Cancer Inst 82: 1107), and the concentration of ABC294640 that inhibited proliferation by 50% (the IC50) was calculated. […] ABC294640 is antiproliferative at sub-to-low-micromolar.

Series [8] concerns MCF-7 human breast adenocarcinoma cells. As to the kind of experiment: Cytotoxicity, SRB assay, MCF-7. It is filed as cell-based. The following applies: MCF7, 48 h, read-out: IC50 (concentration that inhibited proliferation by 50%). The method, then: as §4
For series [9] the following is noted: mouse, in vivo. The protocol:
[…]. […] ABC294640 could also be administered orally to mice at doses up to at least 100 mg/kg without noticeable toxicity.

The nature of the next series: physchem. It is filed as physicochemical. The following applies: aqueous with cosolvent or surfactant or cyclodextrin.
For series [10], the system named is tumor cell strain F46-WT of the mouse. The note with it: for formation of resistance to adriamycin: 6 to 8 weeks. The method, then: (§5) The human tumor cell strain K562-WT and the tumor cell strain F46-WT of the mouse (WT=wild type=sensitive to cytostatic treatment=no amplification of the MDR-gene) is treated over several weeks with staged increase in concentrations of adriamycin. […] The formation of resistance is based on the amplification of the MDR gene.
The tumor cell strain F4-6-WT of the mouse (WT=wild type=sensitive to cytostatic treatment=no amplification of the MDR gene) is treated over several weeks with staged increases in concentration of adriamycin. […] The formation of resistance is based on the amplification of the MDR gene. The levels of β-actin MRNA are likewise analyzed as comparison. β-actin is used as an internal control for the RNA quantity.

Series [11] deals with human tumor cell strain K562-WT. The protocol:
as §5

For the next series, the system named is AH13r sarcoma cells. As to the kind of experiment: BVDU and chemotherapy-induced apoptosis in AH13r sarcoma cells. Format: cell-based. The text has this:
AH13r cells were subjected to increasing doses of the cytostatic mitomycin C (MMC). […] This inhibitory effect was maintained even after discontinuation of the cytostatic in the next cycle, in the so-called recovery phase. The cells without MMC and BVDU continued to grow without inhibition. […] The indication that the reduction in cell number is based on apoptosis, was detected by means of Hoechst 33258/propidium iodide (Hopi) double colouration.

The structures appear in SMILES notation. “And” between values parts separate entries of the source, which are not always exact repeats. Equal values may be shown once. Read-outs that look alike come from different tables or passages of the source. Bounds are passed on as bounds.

Protocol for BN472 breast cancer: The treatments started 72 h after tumor implantation and were repeated daily until the animals were sacrificed after 30 days. The control group (A) received 0.75 ml of the substance-free substance carrier solution consisting of 5% ethanol, 5% D-mannitol and 5% Tween 20 in water orally by gavage.
Growth of the inoculated tumors was determined in the dimensions length and width twice weekly, using a slide gauge. After the animals had been sacrificed, the therapy end points, tumor weight, weights of the axillary and intraperitoneal lymph nodes and also the number of macroscopic lung metastases were determined.

Consider `CCOC(=O)N1CCN(C(=O)[C@H](Cc2cccc(C(=N)N)c2)NS(=O)(=O)c2c(C(C)C)cc(C(C)C)cc2C(C)C)CC1` [WX-UK1, Na-(2,4,6-triisopropylphenylsulfonyl)-3-amidino-(L)-phenylalanine-4-ethoxycarbonylpiperazide], for which the “reduction of average tumor weights at the end of the treatment compared to the control” value in the series on BN472 breast cancer is on record as “approx. 5%”. The “percentage large mets (>2 mm liver lesions of total liver lesions)” value in [1] was 13.4%.
Consider `C[C@@H]1C[C@H]2[C@@H]3CCC4=CC(=O)C=C[C@]4(C)[C@@]3(F)[C@@H](O)C[C@]2(C)[C@@]1(O)C(=O)CO` [Dexamethasone, dexamethasone], for which, in series [2], the “IL-6 (pg/mL) ± SD” value came to 1259 ± 295 pg/mL, the “IL-10 (pg/mL) ± SD” value is listed as 106 ± 66 pg/mL and the “TNF (pg/mL) ± SD” value is on record as 35 ± 10 pg/mL.
Turning to `CC[C@H]1OC(=O)[C@H](C)[C@@H](O[C@H]2C[C@@](C)(OC)[C@@H](O)[C@H](C)O2)[C@H](C)[C@@H](O[C@@H]2O[C@H](C)C[C@H](N(C)C)[C@H]2O)[C@](C)(OC)C[C@@H](C)C(=O)[C@H](C)[C@@H](O)[C@]1(C)O` [clarithromycin, Clarithromycin], the “Toxicity (%)” value in series [3] (100 μM) was 29%; in series [4] (100 μM), 7%; in series [5] (100 μM), 0%.
Turning to `CC(C)/N=c1\cc2n(-c3ccc(Cl)cc3)c3ccccc3nc-2cc1Nc1ccc(Cl)cc1` [clofazimine, Clofazimine], the “Toxicity (%)” value in [3] (5 μM) is 62%; in [4] (5 μM) it was 41%; in [5] (5 μM) it was 4%.
`CO[C@H]1/C=C/O[C@@]2(C)Oc3c(C)c(O)c4c(c3C2=O)C2=NC3(CCN(CC(C)C)CC3)NC2=C(NC(=O)/C(C)=C\C=C\[C@H](C)[C@H](O)[C@@H](C)[C@@H](O)[C@@H](C)[C@H](OC(C)=O)[C@@H]1C)C4=O` [rifabutin, Rifabutin]: the “Toxicity (%)” value in [3] (70 μM) is given as 20%; in [4] (70 μM), 0%; in [5] (35 μM), 8%.
On to `CCOC(=O)N1CCN(C(=O)[C@H](Cc2cccc(C(=N)N)c2)NS(=O)(=O)c2c(C(C)C)cc(C(C)C)cc2C(C)C)CC1.Cl` [UK-1], for which the “Toxicity (%)” value is reported as 35% in series [3] (5 μM); 28% in series [3] (10 μM); 19% in series [3] (20 μM); 0% in series [4] (5 μM); 0% in series [4] (10 μM); 14% in series [4] (20 μM). Moreover, the “Toxicity (%)” value in series [5] (5 μM) worked out at 33%; in [5] (10 μM), 0%; in series [5] (20 μM), 0%.
In the case of `O=C(NCc1ccncc1)C12CC3CC(C1)CC(c1ccc(Cl)cc1)(C3)C2` [ABC294640, 3-(4-chlorophenyl)-adamantane-1-carboxylic acid (pyridin-4-ylmethyl)amide], the “inhibition of tumor growth relative to controls” value in series [6] (100 mg/kg in PEG400 every-other day) is on record as 69%. For the same compound, the “decrease of tumor growth versus control animals” value in series [6] (100 mg/kg in PEG400 every-other day, day 16) is on record as > 70%. In addition, in series [6] (orally administered), the “oral dose with antitumor activity (dose-response studies)” value is ≥ 35 mg/kg. In addition, the IC50 was determined as 21 µM in series [7] and 17 µM in series [8]. Moreover, the “dose with no immediate or delayed toxicity, acute toxicity” value in [9] (female, Swiss-Webster, ip) is listed as “at least 50 mg/kg”. Moreover, the “oral dose without noticeable toxicity” value in [9] (po) is recorded as “at least 100 mg/kg”. Moreover, in “physchem”, the solubility is ≥ 15000 µg/mL and 30000 µM to 40000 µM.
Regarding `O=C(NCc1ccncc1)C12CC3CC(C1)CC(c1ccc(Cl)cc1)(C3)C2` [ABC640, 3-(4-chlorophenyl)-adamantane-1-carboxylic acid (pyridin-4-ylmethyl)amide], the “Toxicity (%)” value in [3] (25 μM) was 17%; in [3] (50 μM), 72%; in series [4] (25 μM), 0%; in series [4] (50 μM) it was 68%; in series [5] (25 μM) it was 11%; in series [5] (50 μM) it was 92%.
With `O=c1[nH]c(=O)n(C2CC(O)C(CO)O2)cc1/C=C/Br` (stereo not drawn) [BVDU, (E)-5-(2-bromovinyl)-2-deoxyuridine], the “formation of resistance to adriamycin” value in series [10] (F4-6-WT, 1 μg/ml BVDU with adriamycin) was “prevented the formation of resistance to adriamycin”; in series [10] (F46-WT, 0.5 or 1 μg/ml BVDU together with staged increasing adriamycin) it was “prevents the formation of resistance to adriamycin”; in [11] (K562-WT, 0.5 or 1 μg/ml BVDU together with staged increasing adriamycin, 6 to 8 weeks) it was “prevents the formation of resistance to adriamycin”. In addition, the “concentration from which BVDU acts in a toxic manner” value was “about 8 μg/ml” in [10] (mouse) and “about 10 μg/ml” in series [11] (human). The “toxic effect, given alone” value in the series with AH13r sarcoma cells is “no toxic effect”. The “cell growth in the recovery phase after discontinuation of the cytostatic” value in the series with AH13r sarcoma cells (continued BVDU without MMC) is on record as “greatly inhibited in their growth”.
For the compound `COc1cccc2c1C(=O)c1c(O)c3c(c(O)c1C2=O)C[C@@](O)(C(=O)CO)C[C@@H]3O[C@H]1C[C@H](N)[C@H](O)[C@H](C)O1` [adriamycin], in [11] (K562-WT, 20 ng/ml, treatment time 4 days), the “toxic effect on non-resistant cells” value was “severely toxic effect”.

The record behind these values is patent publication US9844540B2, “Combination therapies for treating cancer” (RedHill Biopharma Ltd., priority 2015, dated 2017).
